Consider 6 compounds from patent US20110306606A1, “NOVEL 2,6-SUBSTITUTED-3-NITROPYRIDINE DERIVATIVE, METHOD FOR PREPARING SAME, AND PHARMACEUTICAL COMPOSITION INCLUDING SAME” (priority 2008, published 2011).

Data set [1] has as its system Osteoblasts (Calvarial cells). Briefly: Alkaline phosphatase (ALP) activity in osteoblasts (Calvarial cells). The note with it: Mus musculus, 72 h; 1 μM compound, 3 days, Calvarial cell; read-out: ALP activity (1 μM, % of Control) Calvarial cell. It counts as cell-based, mice. Summed up:
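Primary calvarial osteoblasts or MC3T3-E1 cells in α-MEM with 10% FBS were treated with 1 μM compound, against a 0.1% DMSO vehicle. Cell lysates were incubated with p-nitrophenylphosphate at 37° for 30 minutes and read at 405 nm. ALP activity was expressed as p-nitrophenol/μg protein/min and reported as % change versus vehicle.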

In data set [2] the test system is formation of osteoclasts in co-culture of bone marrow cells and osteoblasts. The experiment in a line: Osteoclastogenesis inhibition via co-culture system (TRAP staining). The class given is cell-based, mice. The following applies: Mus musculus, Osteoclast, 168 h; 1 μM compound, 7 days co-culture, TRAP-positive multinucleated osteoclasts vs vehicle control. Summed up: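 Bone marrow cells from male ddY mice were co-cultured with osteoblasts for 7 days in α-MEM/10% FBS with 10^−8 M 1α,25-dihydroxyvitamin D3 and dexamethasone. Compound was present at 1 μM final and refreshed every 2–3 days. TRAP-positive cells with 6–7 nuclei were counted, with % inhibition relative to DMSO vehicle (n=4).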

A further data set concerns MC3T3-E1 cells. Briefly: Alkaline phosphatase (ALP) activity in MC3T3-E1 cells. The class given is cell-based. The following applies: Mus musculus, 72 h; 1 μM compound, 3 days, MC3T3-E1 cell; read-out: ALP activity (1 μM, % of Control) MC3T3-E1 cell. The procedure:
Differentiation and activity of osteoblasts were indirectly evaluated by measuring an ALP activity having a close relationship with osteogenesis.
Osteoblasts (Calvarial cells) prepared in Experimental Example 1 and MC3T3-E1 cells (available from RIKEN Cell Bank, Japan) were collected in α-MEM supplemented with 10% FBS, followed by cell counting. The cells were dispensed into 24-well cultureware at a density of 2×10^4 cells/well. After culturing of the cells for 24 hours, the culture media were discarded and replaced with fresh media in which test compounds were diluted to a concentration of 1 μM (1 mL/well). In addition, the vehicle control group containing 0.1% DMSO was also treated. […] When the experiment was terminated, the supernatant was removed and the cells were washed three times with cold phosphate buffer at 4°. 0.2% Triton X-100 was added to the washed cells which were then subjected to three cycles of freezing at −70° and thawing at room temperature for the complete lysis of cells. The cell extracts were pooled and centrifuged to collect the cell supernatant which was used for the measurement of ALP activity and proteins. The protein concentration was measured using a BCA assay kit (manufactured by Sigma-Aldrich). For the measurement of ALP activity, p-nitrophenylphosphate was added to the cell supernatant which was then incubated at 37° for 30 minutes, and the reaction was terminated with the addition of 50 μL of 0.2N sodium hydroxide. The standard curve was plotted at the absorbance of 405 nm using p-nitrophenol as a standard material and then the absorbance of test materials thus reacted was measured to determine the production amount of p-nitrophenol.
The ALP activity was calculated by dividing the amount of p-nitrophenol produced from each test material by the protein amount and the reaction time. Therefore, the unit of ALP activity was given in terms of p-nitrophenol/μg protein/min. The results are given in Tables 28-1 and 28-2 where the ALP activity unit of each test material was given in terms of % change through the comparison between the individual test materials and the vehicle control group.

For data set [3], the system named is Osteoblasts (Calvarial cells). The following applies: ICR, mouse, 72 h, 1 μM.

As for `O=[N+]([O-])c1ccc(NCc2cccnc2)nc1Nc1ccc(N2CCOCC2)cc1` [Compound 115, 2-(4-morpholinophenylamino)-6-[(3-pyridyl)methylamino]-3-nitropyridine], the values for the activity at 1 µM (in data set [1]; in the data set on MC3T3-E1 cells) were 127% and 148%, respectively. The same compound yielded an inhibition at 1 µM in data set [2] of 89%.

Consider `CC(C)(C)c1ccc(Nc2nc(NCCc3ccccn3)ccc2[N+](=O)[O-])cc1` [Compound 40, 2-[4-(t-butyl)phenylamino]-6-[2-(2-pyridyl)ethylamino]-3-nitropyridine], for which the “Cell viability (%) Calvarial cell” value in data set [3] stood at 82%. Moreover, the activity at 1 µM in data set [1] was 126%; in the data set on MC3T3-E1 cells, 210%. The same compound gave an inhibition at 1 µM in data set [2] of 89%.

In the case of `Cc1ccc(Nc2nc(NCCCn3ccnc3)ccc2[N+](=O)[O-])cc1` [Compound 9, 2-(4-methylphenylamino)-6-[(3-imidazol-1-yl)propylamino]-3-nitropyridine], the “Cell viability (%) Calvarial cell” value in data set [3] is 121%. The activity at 1 µM in data set [1] is 129%; in the data set on MC3T3-E1 cells, 175%. In data set [2], this compound registered an inhibition at 1 µM of 93%.

Consider `N#Cc1cccc(Nc2nc(NCCCn3ccnc3)ccc2[N+](=O)[O-])c1` [Compound 53, 2-[3-cyanophenylamino]-6-[(3-imidazol-1-yl)propylamino]-3-nitropyridine], for which, in data set [3], the “Cell viability (%) Calvarial cell” value was 115%. Also, the activity at 1 µM in data set [1] came out at 134%; in the data set on MC3T3-E1 cells it was 121%. The same compound yielded an inhibition at 1 µM in data set [2] of 97%.

Consider `COc1ccc(Nc2nc(NCCCn3ccnc3)ccc2[N+](=O)[O-])cc1` [Compound 25, 2-(4-methoxyphenylamino)-6-[(3-imidazol-1-yl)propylamino]-3-nitropyridine], for which the “Cell viability (%) Calvarial cell” value in data set [3] is recorded as 101%. Further, the activity at 1 µM turned out to be 126% in data set [1] and 148% in the data set with MC3T3-E1 cells. For the same compound, the inhibition at 1 µM in data set [2] was 98%.

With `N#Cc1ccc(Nc2nc(NCc3ccncc3)ccc2[N+](=O)[O-])cc1` [Compound 50, 2-(4-cyanophenylamino)-6-[(4-pyridyl)methylamino]-3-nitropyridine], in data set [3], the “Cell viability (%) Calvarial cell” value is given as 115%. Also, the activity at 1 µM in data set [1] was found to be 149%; in the data set on MC3T3-E1 cells, 177%. The compound further yielded an inhibition at 1 µM in data set [2] of 94%.
